Assay results taken from article PMC9190014, “Structure, dynamics, and molecular inhibition of the Staphylococcus aureus m^1A22-tRNA methyltransferase TrmK” (The Journal of Biological Chemistry, 2022).
Like-named read-outs stand apart in the source and are kept apart here.

Legend:
[1] = target: T1, m1A22-tRNA methyltransferase TrmK (SaTrmK) (Staphylococcus aureus, UniProt Q2FY13); assay: ITC; co-crystal structure at […] Å; DSF; type: binding
T1 construct: gene SAOUHSC_01661; recombinant SaTrmK, His-tag cleaved by TEVP, N-terminal glycine residue left

[2] = target: T1, m1A22-tRNA methyltransferase TrmK (SaTrmK); assay: MTase-Glo methyltransferase assay with tRNA-Leu, single concentration; type: biochemical
[3] = target: T1, m1A22-tRNA methyltransferase TrmK (SaTrmK); assay: ITC; co-crystal structure at […] Å; DSF; type: binding; remark: listed apart in the source
[4] = target: T1, m1A22-tRNA methyltransferase TrmK (SaTrmK); assay: intact-mass ESI-MS and LC-MS/MS peptide mapping of covalent adduct; MTase-Glo inhibition assay; type: binding

T1 sequence (Q2FY13 entry or part of it): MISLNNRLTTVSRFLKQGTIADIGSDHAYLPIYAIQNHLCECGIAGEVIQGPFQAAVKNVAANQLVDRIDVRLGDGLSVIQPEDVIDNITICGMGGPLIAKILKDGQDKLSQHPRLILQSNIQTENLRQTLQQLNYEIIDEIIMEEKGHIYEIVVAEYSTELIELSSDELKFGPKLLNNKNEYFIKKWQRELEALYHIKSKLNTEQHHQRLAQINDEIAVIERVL

SMILES: Nc1ncnc2c1ncn2[C@@H]1O[C@H](CSCC[C@H](N)C(=O)O)[C@@H](O)[C@H]1O [SAH]
- Kd [1]: 0.94 ± 0.05 µM

SMILES: Nc1ncnc2c1ncn2[C@@H]1O[C@H](C[C@@H](N)CC[C@H](N)C(=O)O)[C@@H](O)[C@H]1O [sinefungin]
- inhibition at 10 µM [2]: ~98%

SMILES: C[S@@+](CC[C@H](N)C(=O)O)C[C@H]1O[C@@H](n2cnc3c(N)ncnc32)[C@H](O)[C@@H]1O [SAM]
- Kd [3]: 39 ± 4 µM

SMILES: CC1=CC(=O)c2c(O)cccc2C1=O [plumbagin, 5-hydroxy-2-methyl-1,4-naphtoquinone]
- inhibition at 5 µM [4]: ~93%
